Assay results: article PMC10569044, “Methylation and Demethylation of Emerging Contaminants Changed Bioaccumulation and Acute Toxicity in Daphnia magna” (Environmental Science & Technology, 2023)
In brackets after ≈: the same amount, converted by molar mass. Read-outs that look alike come from different tables or passages of the source.

Assays:
[1] = Procedure: The pH of the test medium in this study was measured to be 8.50 ± 0.10. The neutral fraction (fn) of the target compounds, their pH-adjusted octanol–water coefficients (log Dow), and their pH-adjusted lipid–water coefficients (log Dlipw) were calculated for this pH condition (Table 1). The calculation and related details are given in the Supporting Information (SI) in Text S1. […]
Text 1. Calculation of physicochemical property parameters
The pH of the artificial freshwater environment for D. magna was measured as […]. The fraction of neutral species (f n) for the test compounds was calculated as the following equation:1–3 […]
where i is 1 for acids and -1 for bases. The pH-adjusted octanol-water coefficient log

D. magna [2] = conditions: for BCF in vivo (dynamic BCF): ku/kd; for ku (uptake rate constant): 24 h uptake phase; for BCF in vivo ratio / half-life in vivo ratio: methylated derivative over demethylated counterpart
D. magna [3] = experiment: Interconversion (methylation/demethylation) in D. magna
in vivo [4] = conditions: Daphnia magna
Procedure: Preliminary tests were conducted for each target compound at widely spaced concentrations to identify the concentration range for deriving an accurate dose–response curve. The stock solutions of individual test compounds were prepared in methanol and diluted with 10 mL of aerated AFW to different concentrations in 20 mL glass vials. The methanol volume was set to 100 μL in each vial as the solvent carrier, and a control group containing 100 μL of methanol without the target compound was used as the carrier solvent control. Each test included at least five concentration levels, and the concentrations of test compounds in the medium were experimentally measured (SI, Table S1). Each treatment included four replicates. […] The obtained dose–response data were fitted to the Boltzmann equation:[24] [drawing 1] 1 where C is the measured concentration of the test compound.

D. magna [5] = conditions: in vivo
[6] = cited from earlier work; for pKa: measured value, ref CompTox Chemicals Dashboard; for logKow: measured values, ref PubChem
in vivo [7] = conditions: whole D. magna (wet weight), 1 mg L^–1, pH 8.5
H. azteca and G. pulex = conditions: cited from earlier work
[8] = end of uptake phase, 24 h, 1 mg L^–1 nominal
[9] = pH 8.50, calculated, crosschecked with ChemAxon
[10] = after 2 h of exposure, 1 mg L^–1 nominal

Compound | fn (neutral fraction) ([1]; pH 8.50, calculated) | BCF in vivo (dynamic BCF) (D. magna [2]; D. magna, 1 mg L^–1 nominal) | ku (uptake rate constant) (D. magna [2]; D. magna) | LC50 at 48 h (in vivo [4]) | BCF in vivo ratio (D. magna [2]) | half-life in vivo ratio (D. magna [2]) | logKow [6] | half-life (in vivo [7]) | logDlipw ([1]; pH 8.50, calculated) | logDow [1, 9] | demethylation in D. magna (demethylated product in exposed D. magna) (D. magna [5]) | further results
O=C1CN=C(c2ccccc2)c2cc(Cl)ccc2N1 [DM-diazepam, reference compound] | 1 | 9.8 ± 0.3 L kg^–1, w.w. | 20 ± 1.7 mL/min/kg |  |  |  |  |  |  |  |  | molar equivalent of demethylated TP in D. magna (D. magna [3]; at the end of depuration): 33.5%
O=C(O)c1ccc(O)cc1 [DM-methylparaben] | 0 | 0.9 ± 0.5 L kg^–1, w.w. | 5 ± 0 mL/min/kg | 226 ± 17.3 µg/mL (≈ 1630 µM) | 1.0 | 1.0 | 1.58 | 2.2 h |  |  |  | logDow ([1]; pH 8.5): -2.38; concentration in D. magna (D. magna [2]; [8]): 682.7 ± 91.5 ng g^–1 (w.w.); molar equivalent of demethylated TP relative to methylated parent in D. magna (D. magna [5]; Daphnia magna, 12 h, pH 8.5): about 2.0%; molar equivalent of demethylated TP in D. magna (D. magna [5]; Daphnia magna, 24 h, pH 8.5): 54.8%; pKa [6]: 4.54
C[C@H](C(=O)O)c1ccc2cc(O)ccc2c1 [DM-naproxen] | 0 | 0 L kg^–1, w.w. |  | 67.9 ± 6 µg/mL (≈ 314 µM) |  |  |  |  | −0.67 | -1.32 |  | logDlipw ([1]; pH 8.50, calculated, listed as DM-Naproxen): -0.67; level in D. magna (D. magna [2]; bioaccumulation experiment, 1 mg L^–1 nominal): below the LOD; formation rate of demethylated TP (D. magna [5]; Daphnia magna, pH 8.5): 1.5 ± 0.3 nmol g^–1 h^–1
COc1ccc(NC(C)=O)cc1 [M-acetaminophen] | 1 | 10.0 ± 0.0 L kg^–1, w.w. | 288 ± 6.7 mL/min/kg | 32.1 ± 5.7 µg/mL (≈ 194 µM) | 33.3 | 0.4 | 1.03 | 0.4 h | 1.45 | 1.03 | not detected | fold difference of concentration in D. magna vs acetaminophen (D. magna [2]; after 2 h of exposure): 28 fold; concentration in D. magna (D. magna [2]; [10]): 8730.7 ± 2900.9 ng g^–1 (w.w.); BCF in vivo ratio (D. magna [2]; listed as methylated acetaminophen): about 33
CC(=O)Nc1ccc(O)cc1 [acetaminophen, reference compound] | 0.9 | 0.3 ± 0.0 L kg^–1, w.w. | 3.3 ± 0 mL/min/kg |  | 1.0 | 1.0 | 0.46 | 1 h |  |  |  | logDlipw ([1]; pH 8.5): 0.89; logDow ([1]; pH 8.5): 0.41; LC50 at 48 h (in vivo [4]; other: waterborne exposure in the test medium): 21.2 ± 2.4 µg/mL (≈ 140 µM); rise of BCF after methylation (D. magna [2]; D. magna, in vivo): approximately 33 fold; concentration in D. magna (D. magna [2]; [10]): 308.7 ± 42.6 ng g^–1 (w.w.); pKa [6]: 9.38
CN1C(=O)CN=C(c2ccccc2)c2cc(Cl)ccc21 [diazepam, reference compound] | 1 | 9.0 ± 0.4 L kg^–1, w.w. |  |  |  |  | 2.82 |  |  |  |  | demethylation in D. magna (demethylated product in exposed D. magna) (D. magna [3]; exposure to individual methylated compound): evident
COC(=O)Cc1ccccc1Nc1c(Cl)cccc1Cl [methylated diclofenac] |  |  |  |  |  |  |  |  |  |  |  | bioaccumulation relative to diclofenac (H. azteca and G. pulex): 25–110 fold
COC(=O)c1ccc(O)cc1 [methylparaben] | 0.41 | 2.8 ± 0.2 L kg^–1, w.w. | 12 ± 1.7 mL/min/kg | 34.4 ± 4.3 µg/mL (≈ 226 µM) |  |  |  | 2.7 h | 1.93 | 1.57 | evident | concentration in D. magna (D. magna [2]; [8]): 2216.3 ± 85.7 ng g^–1 (w.w.)
COc1ccc2cc([C@H](C)C(=O)O)ccc2c1 [naproxen, reference compound] |  | 1.5 ± 0.6 L kg^–1, w.w. |  |  |  |  |  |  |  |  | evident | 
